Source: patent publication US4835162A (priority 1987, dated 1989)
pIC50: −log10 of the molar value. Values joined by “and” are separate entries in the source; they are usually repeats but may differ in a detail not shown here. Equal values may be shown once. “Also recorded” adds a separate entry of the source. Read-outs that look alike come from different tables or passages of the source.

What was measured:
[1] = system: nicotinic receptors (rat brain membranes)
[2] = system: nicotinic receptors (rat brain membranes); assay type: binding
rats [3] = conditions: rat, in vivo
[4] = system: rat liver microsomal system; conditions: cited from earlier work
rats [5] = conditions: rat, in vivo; remark: listed apart in the source
[6] = target: nicotinic receptors (rat brain membranes); assay type: binding; conditions: for pIC50: read-out: 3H-Nicotine Binding IC50
rats or mice = conditions: in vivo; cited from earlier work
[7] = target: nicotinic receptors (rat brain membranes); assay type: binding; conditions: pH 7; read-out: [3H]-MCC IC50
[8] = target: nicotinic receptors (rat brain membranes); conditions: read-out: 3H-MCC Binding IC50
rats [9] = system: rats; parameters: species or system Sprague-Dawley male rats; Blockade of (nicotine-induced prostration) EC50: unit not given here; conditions: rat, in vivo
rats [10] = test: animal or person; conditions: Rattus norvegicus, iv, read-out: Antagonistic dose needed to completely block elevation in systolic blood pressure
rats [11] = test: animal or person; conditions: Rattus norvegicus, ip, 7 min, read-out: % Antagonism (seizures)
rats [12] = conditions: rat, in vivo; remark: listed apart in the source
rats [13] = conditions: rat, in vivo; remark: listed apart in the source
rats [14] = conditions: rat, in vivo; remark: listed apart in the source
rat brain = conditions: cited from earlier work
[15] = in vivo; cited from earlier work

CN1CCCC1c1cccnc1 (single isomer, unassigned; (-)) [[^3 H]-nicotine, (-)-[^3 H]-nicotine]
Bmax of higher affinity site, [3H]-nicotine [1]: 5e-15 mol/mg
Bmax of lower affinity site, [3H]-nicotine [1]: 1e-14 mol/mg and 2e-14 mol/mg
displaceability of [3H]-nicotine binding by muscarinic antagonists [2]: not displaceable by muscarinic cholinergic antagonists

CNC(=O)OCC[N+](C)(C)C [MCC, Methylcarbamylcholine]
Prostration EC50 (rats [3]): 10
duration of prostration (rats [3]): over 20 min
metabolism [4]: metabolized by a rat liver microsomal system
increase in psychotropic potency after quaternization of DMAE methyl carbamate (rats [5]): over 10 fold
potency relative to (-)-nicotine (prostration) (rats [5]): 1/5

C[N+]1(C)CCCC1c1cccnc1 (centres unmarked) [N'--methyl nicotonium]
Prostration EC50 (rats [3]): 100
pIC50 ([6]; pH 7.5): 5.15
pIC50 ([2]; pH 7, read-out: [3H]-nicotine IC50): 5.15
potency in producing seizures and mortality, in words (rats or mice): more potent than nicotine in producing seizures and mortality
decrease in psychotropic potency with quaternization of nicotine (rats [5]): 50 fold
pIC50 [7]: 5.40
pIC50 ([8]; pH 7.5): 5.40

C[N+](C)(C)CCOC(=O)c1ccccc1 [TMAE benzoate, benzoylcholine]
Blockade of (nicotine-induced prostration) EC50 (rats [9]): 10
times as effective as the DMAE ester (rats [9]): 5 times
ED100 (rats [10]): 1.5 mg/kg
responders at 25 mg/kg (rats [11]): 78%
Seizures (rats [12]): 1/8
blockade of seizure activity (rats [12]): 78%
Antagonistic dose needed to completely block elevation in systolic blood pressure (rats [13]): 1.5 ± 0.3 mg/kg
% Antagonism (protection against nicotine mortality) (rats [14]): 63%
Mortality (rats [14]): 3/10

CC(=O)OCC[N+](C)(C)C [[^3 H]-acetylcholine]
displaceability of [3H]-acetylcholine binding by muscarinic antagonists (rat brain): displaceable by low concentrations of muscarinic antagonists

CN1[C@@H](CC(=O)c2ccccc2)CCC[C@H]1C[C@H](O)c1ccccc1 [α-lobeline, reference compound]
Blockade of (nicotine-induced prostration) EC50 (rats [9]): 10
blockade of nicotine-induced prostration / antagonism, in words (rats [9]): most effective antagonist
ED100 (rats [10]): 0.2 mg/kg
binding affinity for nicotine receptor, in words [6]: even greater affinity than (-)-nicotine for the receptor; also recorded: very high affinity for brain nicotine receptors
pIC50 [6]: 8.30
responders at 5 mg/kg (rats [11]): 0%
Seizures (rats [12]): 1/8
protection against seizures, in words (rats [12]): complete protection against seizures
pIC50 [8]: 9.15
Antagonistic dose needed to completely block elevation in systolic blood pressure (rats [13]): 0.2 ± 0.05 mg/kg
% Antagonism (reduction of nicotine mortality) (rats [14]): 75%
Mortality (rats [14]): 2/10
pharmacologic effects, in words [15]: suppress the desire for tobacco; also recorded: hypertensive action resulting from the stimulation of the carotid body; also recorded: broncio-construction; also recorded: brochoarrythmia
